Measured values reported in PubChem BioAssay AID1918943 (Molecular Pharmacology Branch, DTP, NCI, 2023).
Where “and” joins values, the source holds several entries; their conditions need not be identical. Identical values can stand only once.

Tested on: 855422-203-R-J1-PDC complex spheroid viability
Test: Anticancer human tumor 855422-203-R-J1-PDC patient-derived bladder carcinoma cell line growth inhibition
Conditions: for viability, T/C: stronger effect = lower value
Outline: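 Multicellular complex spheroids of tumor cells with human endothelial cells (HUVEC) and mesenchymal stem cells; the LSD1 inhibitor iadademstat was combined with standard-of-care or investigational agents. Top concentration at or near clinical Cmax, half-log dilutions; final DMSO ≤0.25%.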

[1] = curve of first compound, second compound 0.1 µM
[2] = curve of first compound, second compound 0.316 µM
[3] = curve of first compound, second compound 1 µM
[4] = curve of first compound, second compound 3.16 µM
[5] = curve of first compound, second compound 10 µM
[6] = second compound 0.1 µM, first compound 0.00949 µM
[7] = second compound 0.1 µM, first compound 0.03 µM
[8] = second compound 0.1 µM, first compound 0.0949 µM
[9] = second compound 0.1 µM, first compound 0.3 µM
[10] = second compound 0.316 µM, first compound 0.00949 µM
[11] = second compound 0.316 µM, first compound 0.03 µM
[12] = second compound 0.316 µM, first compound 0.0949 µM
[13] = second compound 0.316 µM, first compound 0.3 µM
[14] = second compound 1 µM, first compound 0.00949 µM
[15] = second compound 1 µM, first compound 0.03 µM
[16] = second compound 1 µM, first compound 0.0949 µM
[17] = second compound 1 µM, first compound 0.3 µM
[18] = second compound 3.16 µM, first compound 0.00949 µM
[19] = second compound 3.16 µM, first compound 0.03 µM
[20] = second compound 3.16 µM, first compound 0.0949 µM
[21] = second compound 3.16 µM, first compound 0.3 µM
[22] = second compound 10 µM, first compound 0.00949 µM
[23] = second compound 10 µM, first compound 0.03 µM
[24] = second compound 10 µM, first compound 0.0949 µM
[25] = second compound 10 µM, first compound 0.3 µM
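Note: drug exposure lasted 7 days starting on day 3 after seeding.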
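Throughout, for viability, T/C: luminescence viability as percent of DMSO vehicle wells = 100%.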

Which IC50 [1] does the source give for `CCc1c2c(nc3ccc(O)cc13)-c1cc3c(c(=O)n1C2)COC(=O)[C@]3(O)CC` + NC1CC1c1ccc(-c2cccc(O)c2)cc1 here?
Its IC50 is less than 0.949 nM.

What about the IC50 [2] of the same compound?
Its IC50 is less than 0.949 nM.

What about the IC50 [3] of the same compound?
Its IC50 is less than 0.949 nM.

And the IC50 [4]?
The IC50 was less than 0.949 nM.

And the IC50 [5]?
The IC50 was less than 0.949 nM.

What about the viability, T/C (second compound 0.1 µM, first compound 0.000949 µM) of the same compound?
Its viability, T/C is 20.8%.

What about the viability, T/C (second compound 0.1 µM, first compound 0.003 µM) of the same compound?
Its viability, T/C is 14.2%.

And the viability, T/C [6]?
The viability, T/C was 9.58%.

And the viability, T/C [7]?
The viability, T/C was 6.75%.

What about the viability, T/C [8] of the same compound?
The viability, T/C was 4.82%.

And the viability, T/C [9]?
The viability, T/C was 3.56%.

And the viability, T/C (second compound 0.316 µM, first compound 0.000949 µM)?
The viability, T/C was 17.1%.

What about the viability, T/C (second compound 0.316 µM, first compound 0.003 µM) of the same compound?
The viability, T/C was 15.1%.

What about the viability, T/C [10] of the same compound?
The viability, T/C was 10.9%.

What about the viability, T/C [11] of the same compound?
The viability, T/C was 6.65%.

What about the viability, T/C [12] of the same compound?
The viability, T/C was 4.88%.

What about the viability, T/C [13] of the same compound?
Its viability, T/C is 2.78%.

And the viability, T/C (second compound 1 µM, first compound 0.000949 µM)?
The viability, T/C was 15.7%.

And the viability, T/C (second compound 1 µM, first compound 0.003 µM)?
Its viability, T/C is 13%.

What about the viability, T/C [14] of the same compound?
Its viability, T/C is 10.2%.

And the viability, T/C [15]?
Its viability, T/C is 6.49%.

What about the viability, T/C [16] of the same compound?
Its viability, T/C is 3.41%.

And the viability, T/C [17]?
The viability, T/C was 2.05%.

What about the viability, T/C (second compound 3.16 µM, first compound 0.000949 µM) of the same compound?
The viability, T/C was 15.7%.

And the viability, T/C (second compound 3.16 µM, first compound 0.003 µM)?
Its viability, T/C is 13.7%.

What about the viability, T/C [18] of the same compound?
Its viability, T/C is 9.86%.

And the viability, T/C [19]?
Its viability, T/C is 6.91%.

And the viability, T/C [20]?
The viability, T/C was 4.7%.

What about the viability, T/C [21] of the same compound?
Its viability, T/C is 2.44%.

What about the viability, T/C (second compound 10 µM, first compound 0.000949 µM) of the same compound?
The viability, T/C was 17.6%.

What about the viability, T/C (second compound 10 µM, first compound 0.003 µM) of the same compound?
The viability, T/C was 12.6%.

And the viability, T/C [22]?
The viability, T/C was 8.31%.

And the viability, T/C [23]?
The viability, T/C was 5.99%.

What about the viability, T/C [24] of the same compound?
The viability, T/C was 2.54%.

And the viability, T/C [25]?
Its viability, T/C is 1.14%.

For `Nc1ncn(C2CC(O)C(CO)S2)c(=O)n1` (stereo not given), which viability, T/C (compound 0.000949 µM) is on record?
Its viability, T/C is 106% and 93.8%.

And the viability, T/C (compound 0.003 µM)?
The viability, T/C was 91.9% and 98.4%.

What about the viability, T/C (compound 0.00949 µM) of the same compound?
Its viability, T/C is 88.5% and 95.2%.

What about the viability, T/C (compound 0.03 µM) of the same compound?
The viability, T/C was 84.7% and 98%.

What about the viability, T/C (compound 0.0949 µM) of the same compound?
The viability, T/C was 82.8% and 102%.

And the viability, T/C (compound 0.3 µM)?
The viability, T/C was 79.9% and 83.6%.

What about the IC50 (curve of compound) of the same compound?
Its IC50 is greater than 300 nM.

What does the source list for `CC1COCCN1c1cc(C2(S(C)(=N)=O)CC2)nc(-c2ccnc3[nH]ccc23)n1` (stereo not given)?
viability, T/C (compound 0.0316 µM): 108% and 93.8%; viability, T/C (compound 0.1 µM): 99.9% and 93.1%; viability, T/C (compound 0.316 µM): 101% and 94.4%; viability, T/C (compound 1 µM): 84.9% and 85.9%; viability, T/C (compound 3.16 µM): 45% and 36.6%; viability, T/C (compound 10 µM): 40.7% and 35%; IC50 (curve of compound): 2760 nM and 2310 nM

What does the source list for `O=C(C=Cc1cccc(S(=O)(=O)Nc2ccccc2)c1)NO` + NC1CC1c1ccc(-c2cccc(O)c2)cc1?
IC50 [1]: 446 nM; IC50 [2]: 448 nM; IC50 [3]: 404 nM; IC50 [4]: 466 nM; IC50 [5]: 336 nM; viability, T/C [6]: 102%; viability, T/C [7]: 109%; viability, T/C [8]: 106%; viability, T/C [9]: 66.2%; viability, T/C (second compound 0.1 µM, first compound 0.949 µM): 17.4%; viability, T/C (second compound 0.1 µM, first compound 3 µM): 0.43%; viability, T/C [10]: 103%; viability, T/C [11]: 112%; viability, T/C [12]: 122%; viability, T/C [13]: 66.4%; viability, T/C (second compound 0.316 µM, first compound 0.949 µM): 19.4%; viability, T/C (second compound 0.316 µM, first compound 3 µM): 0.31%; viability, T/C [14]: 100%; viability, T/C [15]: 116%; viability, T/C [16]: 114%; viability, T/C [17]: 60.4%; viability, T/C (second compound 1 µM, first compound 0.949 µM): 18.3%; viability, T/C (second compound 1 µM, first compound 3 µM): 0.29%; viability, T/C [18]: 94.5%; viability, T/C [19]: 105%; viability, T/C [20]: 118%; viability, T/C [21]: 69.8%; viability, T/C (second compound 3.16 µM, first compound 0.949 µM): 17.1%; viability, T/C (second compound 3.16 µM, first compound 3 µM): 0.24%; viability, T/C [22]: 97.6%; viability, T/C [23]: 108%; viability, T/C [24]: 106%; viability, T/C [25]: 54%; viability, T/C (second compound 10 µM, first compound 0.949 µM): 10.9%; viability, T/C (second compound 10 µM, first compound 3 µM): 0.27%

What does the source list for `NC1CCC(NC2CC2c2ccccc2)CC1` (stereo not given)?
viability, T/C (compound 0.1 µM): 89.9% [middle of 25 runs]; viability, T/C (compound 0.316 µM): 96.7% and 90.2%; viability, T/C (compound 1 µM): 86.6% [middle of 25 runs]; viability, T/C (compound 3.16 µM): 87.7% [middle of 25 runs]; viability, T/C (compound 10 µM): 78.7% [middle of 23 runs]; IC50 (compound alone, run of 11/29/2021): > 10000 nM
